Data on 26 molecules can be found in PubChem BioAssay (NCI).

Each structure is given as a SMILES string.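 48-hour exposure; five concentrations; linearly interpolated endpoints. GI50 marks 50% less growth. The concentration for full growth arrest is given as TGI.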

Among the test systems are DMS 114 small cell lung; XF 498 CNS; DMS 273 small cell lung; SNB-78 CNS; DLD-1 colon; M19-MEL melanoma; MDA-MB-435; PC-3 prostate; KM20L2 colon; MCF7 breast.
Common to all, as to assay: inhibition of tumour cell growth, NCI panel, 48 h

On to `Cc1cc(Cl)cc2c1NC(=O)C2(O)CC(=O)c1ccco1` (stereo not given), for which the TGI was greater than 100 µM in the assay on DMS 114 small cell lung; greater than 100 µM with XF 498 CNS; greater than 100 µM with DMS 273 small cell lung; greater than 100 µM in the assay with SNB-78 CNS; greater than 100 µM in the assay with DLD-1 colon; 30.9 µM in the assay on M19-MEL melanoma. Besides, the values for the TGI in the assay on MDA-MB-435 and in the assay with PC-3 prostate were 14.2 µM and greater than 100 µM, respectively.
With `Cc1c(C(=O)C/C(=N/NC(=O)C[N+](C)(C)C)C(=O)Nc2ccc(Cl)cc2)[n+](=O)c2ccccc2n1O`, the TGI with DMS 114 small cell lung, in the assay with XF 498 CNS, in the assay with KM20L2 colon, in the assay with DMS 273 small cell lung, in the assay on SNB-78 CNS and in the assay on DLD-1 colon was greater than 100 µM each time. The TGI in the assay on M19-MEL melanoma is greater than 100 µM.
Regarding `Cc1ccc(NC(=O)CC(=O)n2nc(C)c(N=Nc3ccccc3C(=O)O)c2C)cc1`, the TGI in the assay with DMS 114 small cell lung, in the assay on XF 498 CNS, in the assay with KM20L2 colon, in the assay on DMS 273 small cell lung, in the assay with SNB-78 CNS and in the assay on DLD-1 colon was greater than 100 µM each time. In the assay with M19-MEL melanoma, this molecule returned a TGI greater than 100 µM.
As to `CCCC1N2CCCCC2[C@@H]2c3[nH]c4ccccc4c3CCN12` (stereo not given in full), the TGI in the assay with DMS 114 small cell lung, in the assay on XF 498 CNS, with KM20L2 colon, in the assay on DMS 273 small cell lung, in the assay with SNB-78 CNS and with DLD-1 colon was greater than 100 µM throughout. The molecule also had a TGI in the assay on M19-MEL melanoma greater than 100 µM.
Turning to `O=C(O)C(CS)Nc1c2ccccc2nc2ccccc12` (stereo not given), the TGI with DMS 114 small cell lung, in the assay with XF 498 CNS, in the assay with KM20L2 colon, with DMS 273 small cell lung, in the assay on DLD-1 colon and with M19-MEL melanoma was greater than 100 µM throughout.
On to `Nc1cccc(S(=O)(=O)NCC(=O)O)c1`, for which the TGI in the assay on DMS 114 small cell lung, with XF 498 CNS, in the assay with KM20L2 colon, in the assay with DMS 273 small cell lung, in the assay on SNB-78 CNS and in the assay on DLD-1 colon was greater than 100 µM each time. This molecule came in with a TGI with M19-MEL melanoma greater than 100 µM.
Take `O=C(CC1(O)C(=O)Nc2ccccc21)c1ccncc1` (stereo not given): the TGI in the assay on DMS 114 small cell lung, with KM20L2 colon, with DMS 273 small cell lung, in the assay with SNB-78 CNS, in the assay with DLD-1 colon and with M19-MEL melanoma was greater than 100 µM each time.
As to `O=C(N/C(=C\c1cccc([N+](=O)[O-])c1)c1nc2ccc([N+](=O)[O-])cc2[nH]1)c1ccccc1`, the TGI was 59.8 µM in the assay with XF 498 CNS; greater than 100 µM in the assay with KM20L2 colon; greater than 100 µM in the assay with DMS 273 small cell lung; greater than 100 µM in the assay with SNB-78 CNS; greater than 100 µM in the assay with DLD-1 colon; greater than 100 µM in the assay with M19-MEL melanoma.
As for `CC(=O)OCC1OC(NC(=S)N/N=C2\CC(c3ccccc3)Oc3ccccc32)C(OC(C)=O)C(OC(C)=O)C1OC(C)=O` (stereo not given), the TGI in the assay with DMS 114 small cell lung, with XF 498 CNS, in the assay on KM20L2 colon, in the assay with DMS 273 small cell lung, in the assay with SNB-78 CNS and with DLD-1 colon was greater than 100 µM each time. The same molecule showed a TGI in the assay with M19-MEL melanoma greater than 100 µM.
For the molecule `CC1CN1C(=O)NCCCCCCNC(=O)N1CC1C` (stereo not given), the TGI in the assay on DMS 114 small cell lung was 98.3 µM; in the assay with XF 498 CNS it was greater than 100 µM; with KM20L2 colon it was greater than 100 µM; with DMS 273 small cell lung, greater than 100 µM; in the assay on MCF7 breast, greater than 100 µM; in the assay with DLD-1 colon it was greater than 100 µM. Also, the TGI in the assay with M19-MEL melanoma, with MDA-MB-435 and in the assay with PC-3 prostate was greater than 100 µM in each case.
Turning to `CC1OC(OC2C(OC(=O)[C@]34CCC(C)(C)CC3C3=CCC5[C@@]6(C)C[C@H](O)[C@H](OC7OC(CO)C(O)C(O)C7N)[C@@](C)(C(=O)O)C6CC[C@@]5(C)C3(C)CC4)OCC(O)C2O)C(O)C(O)C1OC1OCC(O)C(O)C1O` (stereo not given in full), the TGI in the assay with DMS 114 small cell lung, in the assay on KM20L2 colon, with DMS 273 small cell lung, with SNB-78 CNS, in the assay with DLD-1 colon and in the assay with M19-MEL melanoma was greater than 100 µM each time.
Take `CCC[CH2][Sn]1([CH2]CCC)[O]C(=O)CN=Cc2c(ccc3ccccc23)[O]1`: the GI50 in the assay with DMS 114 small cell lung is 139 nM; with XF 498 CNS, greater than 100 µM; in the assay with KM20L2 colon, 1090 nM; with DMS 273 small cell lung it was 1000 nM; in the assay on SNB-78 CNS, 282 nM; in the assay with DLD-1 colon, 811 nM. Besides, the GI50 in the assay on M19-MEL melanoma was 299 nM. Also, the TGI is 0.299 µM with DMS 114 small cell lung; greater than 100 µM with XF 498 CNS; 2.29 µM with KM20L2 colon; 2.22 µM in the assay with DMS 273 small cell lung; 1.4 µM with SNB-78 CNS; greater than 100 µM in the assay with DLD-1 colon. The molecule further had a TGI in the assay on M19-MEL melanoma of 1.23 µM.
Take `C[C@@H]1OC(=O)N2CCCC(=C3SCCCS3)C12` (stereo not given in full): the TGI with DMS 114 small cell lung, with XF 498 CNS, in the assay on KM20L2 colon, in the assay with DMS 273 small cell lung, in the assay with SNB-78 CNS and in the assay on M19-MEL melanoma was greater than 100 µM throughout.
For `Nc1c(-c2ccc(Cl)cc2)[n+]([O-])c2ccccc2[n+]1[O-]`, the TGI in the assay on DMS 114 small cell lung, in the assay with XF 498 CNS, in the assay on KM20L2 colon, with DMS 273 small cell lung, with SNB-78 CNS and in the assay on DLD-1 colon was greater than 100 µM each time. The same molecule displayed a TGI with M19-MEL melanoma greater than 100 µM.
`C/C(O)=C(\N=O)C(=O)Nc1ccc(Cl)cc1Cl`: the TGI with DMS 114 small cell lung, in the assay on KM20L2 colon, in the assay on DMS 273 small cell lung, with SNB-78 CNS, with DLD-1 colon and in the assay with M19-MEL melanoma was greater than 100 µM each time.
In the case of `COCCCNC(=O)C1C(=O)C(=O)N(CCCOC)C1=O` (stereo not given), the TGI with DMS 114 small cell lung, with KM20L2 colon, in the assay on DMS 273 small cell lung, with SNB-78 CNS, in the assay on DLD-1 colon and with M19-MEL melanoma was greater than 100 µM in each case.
For `NC12CC3CC(C1)CC(C(=O)O)(C3)C2`, the TGI with DMS 114 small cell lung, in the assay on XF 498 CNS, with KM20L2 colon, with DMS 273 small cell lung, in the assay with SNB-78 CNS and in the assay on DLD-1 colon was greater than 100 µM throughout. In the assay on M19-MEL melanoma, this molecule showed a TGI greater than 100 µM.
In the case of `CC(SC(=S)N1CCOCC1)c1cc2oc(=O)n(C)c2cc1Cl` (stereo not given), the TGI in the assay with DMS 114 small cell lung, in the assay on XF 498 CNS, with KM20L2 colon, with DMS 273 small cell lung, in the assay on SNB-78 CNS and with DLD-1 colon was greater than 100 µM throughout. Besides, the TGI in the assay with M19-MEL melanoma was greater than 100 µM.
Consider `CCc1ccccc1NC(=O)C1=C(C)NC(C)=C(C(=O)Nc2ccccc2CC)C1c1ccc2c(c1)OCO2`, for which the TGI in the assay on DMS 114 small cell lung was greater than 100 µM; in the assay on XF 498 CNS, 70.4 µM; in the assay with SNB-78 CNS it was greater than 100 µM; in the assay on DLD-1 colon, greater than 100 µM; in the assay with M19-MEL melanoma, greater than 100 µM.
As for `CNC(=O)C1CCc2nnc(-c3ccccc3)n21` (stereo not given), the TGI in the assay on DMS 114 small cell lung, in the assay on KM20L2 colon, in the assay with DMS 273 small cell lung, in the assay with SNB-78 CNS, in the assay with DLD-1 colon and in the assay on M19-MEL melanoma was greater than 100 µM in each case.
On to `COc1ccc2c(c1)[n+](=O)c(C(=O)C/C(=N/OCCCc1ccccc1)C(=O)NC13CC4CC(CC(C4)C1)C3)c(C)n2[O-]`, for which the TGI with DMS 114 small cell lung, with XF 498 CNS, in the assay on KM20L2 colon, in the assay on DMS 273 small cell lung, in the assay on SNB-78 CNS and in the assay on DLD-1 colon was greater than 100 µM in each case. This molecule yielded a TGI with M19-MEL melanoma greater than 100 µM.
With `O=C(CCc1cc(-c2ccccc2)nc(=S)[nH]1)N(Cc1ccccc1)Cc1ccccc1`, the TGI with DMS 114 small cell lung, in the assay with XF 498 CNS, with KM20L2 colon, in the assay on DMS 273 small cell lung, with SNB-78 CNS and with DLD-1 colon was greater than 100 µM each time. The TGI with M19-MEL melanoma is greater than 100 µM.
Regarding `NC(=O)COC(=O)c1c(Cl)nc2sccn12`, the TGI in the assay on DMS 114 small cell lung is greater than 83.8 µM; with XF 498 CNS, greater than 100 µM; in the assay with KM20L2 colon, greater than 100 µM; with DMS 273 small cell lung, greater than 100 µM; in the assay with SNB-78 CNS it was greater than 100 µM; in the assay on DLD-1 colon it was greater than 100 µM. Further, the TGI in the assay on M19-MEL melanoma is greater than 100 µM.
`O=C(CCN(C(=O)O)S(=O)(=O)c1ccc(NC(=O)c2ccccc2)cc1)NC1CCCCC1`: the TGI in the assay with DMS 114 small cell lung, in the assay on XF 498 CNS, in the assay on KM20L2 colon, with DMS 273 small cell lung, in the assay on SNB-78 CNS and in the assay with DLD-1 colon was greater than 100 µM in each case. The molecule further had a TGI in the assay on M19-MEL melanoma greater than 100 µM.
As for `O=C(CC1(O)C(=O)Nc2c(Cl)ccc(Cl)c21)c1ccc(F)cc1` (stereo not given), the TGI in the assay on DMS 114 small cell lung is 52.1 µM; in the assay on XF 498 CNS, 77.1 µM; in the assay with KM20L2 colon, greater than 100 µM; with DMS 273 small cell lung, greater than 100 µM; in the assay with SNB-78 CNS, greater than 100 µM; with DLD-1 colon it was greater than 100 µM.
In the case of `CCOC(=O)/C(=C\c1ccccc1)C(=O)O`, the TGI in the assay with DMS 114 small cell lung, in the assay with XF 498 CNS, in the assay on KM20L2 colon, with DMS 273 small cell lung, with SNB-78 CNS and in the assay with M19-MEL melanoma was greater than 100 µM in each case.
